Data reported in PubChem BioAssay (NCI).
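Dose response: 5 concentrations. Exposure: 48 h. Format: 96-well plates. Endpoint: linear interpolation; highest concentration if not reached. Abbreviation: GI50, concentration required for 50% inhibition of growth. The concentration for full growth arrest is given as TGI.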

Columns and labels:
Assay in all cases: growth of human tumour cells (NCI), 48 h
[1] = system: SNB-19 CNS
[2] = system: UACC-62 melanoma
[3] = system: RPMI-8226 leukemia
[4] = system: MDA-MB-435
[5] = system: SK-MEL-2 melanoma
[6] = system: SK-MEL-28 melanoma
[7] = system: HOP-62 NSCLC
[8] = system: T-47D breast
[9] = system: SF-295 CNS
[10] = system: HCC-2998 colon

SMILES	GI50 [1] [µM]	TGI [1] [µM]	GI50 [2] [µM]	TGI [2] [µM]	GI50 [3] [µM]	TGI [3] [µM]	GI50 [4] [µM]	TGI [4] [µM]	GI50 [5] [µM]	TGI [5] [µM]	GI50 [6] [µM]	TGI [6] [µM]	GI50 [7] [µM]	TGI [7] [µM]	GI50 [8] [µM]	TGI [8] [µM]	GI50 [9] [µM]	TGI [9] [µM]	TGI [10] [µM]	GI50 [10] [µM]
OCCCN=NNc1ccc(-c2nc3ccccc3[nH]2)cc1	22.9	48.8	17.6	50.8	34.2	> 100	3.44	16.1	14.5	48.1	2.47	6.46	50.5	71.3	2.15	6.65	2.87	7.58	–	–
Cn1c2c(c3ccccc31)C1CCCCC1C1C(=O)NC(=O)C21 (stereo not given)	–	> 100	–	> 100	–	> 100	–	–	–	–	–	> 100	–	–	–	–	–	> 100	> 100	–
N#CC(C(=O)/C(=N\Nc1nc(=S)[nH]n1N)C(C#N)c1ccc(Cl)cc1)c1ccc(Cl)cc1 (stereo not given)	–	> 100	–	> 100	–	> 100	–	–	–	> 100	–	> 100	–	> 100	–	–	–	> 100	> 100	–
O=C(CC1(O)C(=O)Nc2ccccc21)c1ccccc1Cl (stereo not given)	–	> 100	–	> 100	–	> 100	–	–	–	> 100	–	> 100	–	–	–	–	–	> 100	–	–
COc1cc(C(=O)/C=C/c2cc(C(=O)c3cc(OC)c(OC)c(OC)c3)ccc2OC)ccc1N	–	–	1.17	2.66	0.419	14.1	1.19	> 100	1.63	3.72	1.36	3.75	2.03	8.31	–	–	2.3	17.4	2.64	1.27
CC/C=C1\N=C(c2ccc(Cl)cc2)OC1=O	–	> 100	–	> 100	–	> 100	–	–	–	> 100	–	> 100	–	> 100	–	–	–	> 100	> 100	–
Cc1ccc(-c2nc(SCC(=O)O)n[nH]2)cc1	–	> 100	–	> 100	–	> 100	–	–	–	> 100	–	> 100	–	> 100	–	–	–	> 100	> 100	–
COc1cc(/C=C/c2cc(/C=C/c3ccc(O)c(OC)c3)n(-c3c(C)cccc3C)c(=O)n2)ccc1O	2.38	9.19	0.635	3.28	–	–	–	–	0.436	1.73	1.16	5.1	1.08	2.76	1.34	4.25	–	–	9.15	2.28
O=S(O)CCCCCSSCCCCSSCCCCCS(=O)O	–	> 100	–	> 100	–	> 100	–	–	–	> 100	–	> 100	–	> 100	–	–	–	> 100	–	–
COc1cccc(C2C(C#N)=C(N)Oc3cc(N)ccc32)c1 (stereo not given)	–	> 100	0.368	> 100	0.412	> 69	0.138	0.672	0.397	> 100	0.663	> 100	0.692	> 100	–	–	0.376	> 100	> 100	0.82
O=C(CO)CC(=O)C(=O)Nc1nc([N+](=O)[O-])cs1	–	> 100	–	> 100	–	> 100	–	–	–	> 100	–	> 100	–	> 100	–	–	–	> 100	> 100	–
Cc1ccc(NC(=O)c2cccc([N+](=O)[O-])c2O)c([N+](=O)[O-])c1	–	82.9	–	24.8	–	> 100	–	–	–	–	–	32	–	37.6	–	–	–	32.8	29.5	–
COC(=O)c1ccc2c(c1)nc(-c1cc3ccccc3[nH]c1=O)n2-c1cc(C(C)(C)C)[nH]n1	7.59	> 100	–	–	0.443	–	–	–	2.82	> 100	–	–	0.996	> 100	> 100	> 100	2.14	> 50.5	–	–
CCOc1ccc([C@@H]2[C@@H](Oc3ccccc3)C(=O)N2c2cc(OC)c(OC)c(OC)c2)cc1	0.289	> 100	0.0427	> 100	0.0486	> 100	–	–	0.097	> 100	1.89	> 100	0.0586	> 100	9.48	> 100	0.0534	> 100	> 100	0.468
N/N=C1\C(=O)N(C2CCCCC2)C(=O)C1C(=O)NC1CCCCC1 (stereo not given)	–	> 100	–	> 100	–	> 100	–	–	–	74.7	–	> 100	–	> 100	–	–	–	> 100	> 100	–
COC1=CC(O)(CC(N)=O)c2ccccc2C1=O (stereo not given)	–	> 100	–	> 100	–	> 100	–	–	–	> 100	–	> 100	–	> 100	–	–	–	> 100	> 100	–
CC(=O)N1CC(Nc2ccc(OC(F)(F)F)cc2)=CC1=O	3.22	> 100	0.821	> 100	2.67	> 100	0.195	0.439	0.52	95.9	7.29	> 100	3.51	> 100	–	–	2.86	> 100	53.2	3.22
COc1ccc2oc3c4c2c1CCC4CCC3=O (stereo not given)	–	> 100	–	> 100	–	> 100	–	–	–	> 100	–	> 100	–	> 100	–	–	–	> 100	> 100	–
CC1=CC(=O)CCC2(C)C1CC[C@@H]2OC=O (stereo not given in full)	–	> 100	–	> 100	–	> 100	–	–	–	> 100	–	> 100	–	> 100	–	–	–	> 100	> 100	–
C=C/C=C(\NC(=O)C(Cl)(Cl)Cl)[Si](C)(C)C	–	> 100	–	> 100	–	> 100	–	–	–	> 100	–	> 100	–	> 100	–	–	–	> 100	> 100	–
